The values that follow come from patent US7977322B2 (Vertex Pharmaceuticals Incorporated, priority 2004, dated 2011).

The structures appear in SMILES notation.

For the test, the target named is T1, ΔF508-CFTR (Homo sapiens, UniProt P13569, DEL508-508).
T1 construct: expressed in transfected cells
Description: Membrane potential optical (FRET/VIPR) assay, identification of correction compounds. The format is cell-based. The conditions noted are these: Table 3, assay not given; for Emax: read-out: % Activity / % Efficacy (relative efficacy). The text has this:
I) Membrane Potential Optical Methods for Assaying ΔF508-CFTR Modulation Properties of Compounds
These voltage sensitive assays are based on the change in fluorescence resonant energy transfer (FRET) between the membrane-soluble, voltage-sensitive dye, DiSBAC2(3), and a fluorescent phospholipid, CC2-DMPE, which is attached to the outer leaflet of the plasma membrane and acts as a FRET donor. Changes in membrane potential (Vm) cause the negatively charged DiSBAC2(3) to redistribute across the plasma membrane and the amount of energy transfer from CC2-DMPE changes accordingly. The changes in fluorescence emission were monitored using VIPR™ II, which is an integrated liquid handler and fluorescent detector designed to conduct cell-based screens in 96- or 384-well microtiter plates.
Identification of Correction Compounds
To identify small molecules that correct the trafficking defect associated with ΔF508-CFTR; a single-addition HTS assay format was developed. The cells were incubated in serum-free medium for 16 hrs at 37° C. in the presence or absence (negative control) of test compound. As a positive control, cells plated in 384-well plates were incubated for 16 hrs at 27° C. to “temperature-correct” ΔF508-CFTR. The cells were subsequently rinsed 3× with Krebs Ringers solution and loaded with the voltage-sensitive dyes. To activate ΔF508-CFTR, 10 μM forskolin and the CFTR potentiator, genistein (20 μM), were added along with Cl^− free medium to each well. The addition of Cl^− free medium promoted Cl^− efflux in response to ΔF508-CFTR activation and the resulting membrane depolarization was optically monitored using the FRET-based voltage-sensor dyes.
• Bath Solution #1: (in mM) NaCl 160, KCl 4.5, CaCl2 2, MgCl2 1, HEPES 10, pH 7.4 with NaOH. • Chloride-free bath solution: Chloride salts in Bath Solution #1 are substituted with gluconate salts. • CC2-DMPE: Prepared as a 10 mM stock solution in DMSO and stored at −20° C. • DiSBAC2(3): Prepared as a 10 mM stock in DMSO and stored at −20° C.
NIH3T3 mouse fibroblasts stably expressing ΔF508-CFTR are used for optical measurements of membrane potential. The cells are maintained at 37° C. in 5% CO2 and 90% humidity in Dulbecco's modified Eagle's medium supplemented with 2 mM glutamine, 10% fetal bovine serum, 1×NEAA, β-ME, 1×pen/strep, and 25 mM HEPES in 175 cm^2 culture flasks. For all optical assays, the cells were seeded at 30,000/well in 384-well matrigel-coated plates and cultured for 2 hrs at 37° C. before culturing at 27° C. for 24 hrs. for the potentiator assay.

T1 sequence (P13569 with tags, fused parts or gaps DEL508-508): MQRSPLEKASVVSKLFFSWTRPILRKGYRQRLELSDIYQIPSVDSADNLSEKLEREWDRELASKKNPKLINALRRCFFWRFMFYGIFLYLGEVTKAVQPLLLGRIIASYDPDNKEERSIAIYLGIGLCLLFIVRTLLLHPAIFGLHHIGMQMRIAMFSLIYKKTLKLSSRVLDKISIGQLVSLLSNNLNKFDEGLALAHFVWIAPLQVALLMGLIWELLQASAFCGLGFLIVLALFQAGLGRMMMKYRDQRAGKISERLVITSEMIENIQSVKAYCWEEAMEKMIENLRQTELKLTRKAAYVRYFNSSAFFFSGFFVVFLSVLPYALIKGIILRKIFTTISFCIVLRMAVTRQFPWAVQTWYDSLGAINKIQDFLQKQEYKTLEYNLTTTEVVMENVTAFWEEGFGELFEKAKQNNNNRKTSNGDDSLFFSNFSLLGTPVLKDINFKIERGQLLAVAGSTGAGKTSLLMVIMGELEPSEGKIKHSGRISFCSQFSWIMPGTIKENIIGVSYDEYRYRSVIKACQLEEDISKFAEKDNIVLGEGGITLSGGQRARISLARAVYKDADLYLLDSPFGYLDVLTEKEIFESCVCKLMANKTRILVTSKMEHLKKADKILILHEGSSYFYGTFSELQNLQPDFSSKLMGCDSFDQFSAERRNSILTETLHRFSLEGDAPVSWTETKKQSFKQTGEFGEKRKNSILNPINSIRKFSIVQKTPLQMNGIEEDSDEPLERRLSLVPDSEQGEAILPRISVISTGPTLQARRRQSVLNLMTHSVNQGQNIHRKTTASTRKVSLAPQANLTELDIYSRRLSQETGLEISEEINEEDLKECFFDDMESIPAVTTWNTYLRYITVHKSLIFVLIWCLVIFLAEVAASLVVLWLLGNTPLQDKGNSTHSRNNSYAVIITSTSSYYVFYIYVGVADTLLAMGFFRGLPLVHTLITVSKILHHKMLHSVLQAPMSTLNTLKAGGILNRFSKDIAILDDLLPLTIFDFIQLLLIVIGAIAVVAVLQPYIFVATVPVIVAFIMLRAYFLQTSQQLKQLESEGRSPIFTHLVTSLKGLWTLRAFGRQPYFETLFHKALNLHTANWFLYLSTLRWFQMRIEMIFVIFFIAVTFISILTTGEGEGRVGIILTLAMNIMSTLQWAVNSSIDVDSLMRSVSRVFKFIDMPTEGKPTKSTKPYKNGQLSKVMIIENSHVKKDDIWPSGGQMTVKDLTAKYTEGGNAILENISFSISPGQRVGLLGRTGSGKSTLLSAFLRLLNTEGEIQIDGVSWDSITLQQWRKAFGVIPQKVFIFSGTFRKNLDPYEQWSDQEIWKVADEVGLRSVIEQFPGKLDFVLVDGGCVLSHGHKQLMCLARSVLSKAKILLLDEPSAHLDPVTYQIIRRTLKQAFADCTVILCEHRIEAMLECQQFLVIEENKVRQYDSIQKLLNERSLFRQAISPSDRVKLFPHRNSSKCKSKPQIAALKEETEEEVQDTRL

Usually EC50 stands for the concentration that produces a half-maximal response. With `COc1ccc(Cc2cnc(NC(=O)C3(c4ccc(OC)cc4)CC3)s2)cc1` [Example 180], the “% Activity / % Efficacy (relative efficacy)” value is “+++ (“+++” means>100%)” and the EC50 was below 10 µM. For `COc1cccc(Cc2cnc(NC(=O)C3(c4ccc5c(c4)OCO5)CC3)s2)c1` [Example 181] the same measures were “+++ (“+++” means>100%)” and below 10 µM. As to `COc1ccc(F)cc1Cc1cnc(NC(=O)C2(c3ccc4c(c3)OCO4)CC2)s1` [Example 182], the “% Activity / % Efficacy (relative efficacy)” value is listed as “+++ (“+++” means>100%)” and the concentration for a half-maximal effect (EC50) is below 10 µM.

For `COc1ccc(Cc2cnc(NC(=O)C3(c4ccc5c(c4)OCO5)CC3)s2)cc1` [Example 183], the “% Activity / % Efficacy (relative efficacy)” value is on record as “+++ (“+++” means>100%)” and the EC50 is below 10 µM. On to `CCCc1nc(NC(=O)C2(c3ccc(OC)cc3)CC2)sc1C(=O)OCC` [Example 184], for which the “% Activity / % Efficacy (relative efficacy)” value is reported as “+++ (“+++” means>100%)” and the EC50 was below 10 µM. For `CN(C)CCNC(c1cnc(NC(=O)C2(c3ccc4c(c3)OCO4)CC2)s1)c1ccccc1Cl` (stereo not drawn) [Example 187] the same measures were “+++ (“+++” means>100%)” and below 10 µM. As for `O=C(Nc1ncc(C(NCCN2CCOCC2)c2ccccc2Cl)s1)C1(c2ccc3c(c2)OCO3)CC1` (stereo not drawn) [Example 188], the “% Activity / % Efficacy (relative efficacy)” value is listed as “++ (“++” means between 25% to 100%)” and the EC50 is below 10 µM. In the case of `O=C1CCCc2nc(NC(=O)C3(c4ccc5c(c4)OCO5)CC3)sc21` [Example 190], the “% Activity / % Efficacy (relative efficacy)” value is on record as “+ (“+” means<25%)” and the EC50 lay within 10 to 25 µM. Take `CCCc1nc(NC(=O)C2(c3ccc4c(c3)OCO4)CC2)sc1C(=O)O` [Example 191]: the “% Activity / % Efficacy (relative efficacy)” value is “++ (“++” means between 25% to 100%)” and the EC50 was below 10 µM. Turning to `CCCc1nc(NC(=O)C2(c3ccc4c(c3)OCO4)CC2)sc1C(=O)NCC` [Example 192], the “% Activity / % Efficacy (relative efficacy)” value is on record as “+++ (“+++” means>100%)” and the EC50 was below 10 µM. In the same order, the values of `COc1ccc(C2(C(=O)Nc3ncc(Cc4c(F)cccc4OC)s3)CC2)cc1` [Example 193] are “+++ (“+++” means>100%)” and below 10 µM. Turning to `COc1ccc(C2(C(=O)Nc3ncc(CCc4ccccc4OC)s3)CC2)cc1` [Example 194], the “% Activity / % Efficacy (relative efficacy)” value is “++ (“++” means between 25% to 100%)” and the half-maximal effective concentration (EC50) was below 10 µM. For `CCOC(=O)c1nc(NC(=O)C2(c3ccc(OC)cc3)CC2)sc1Cc1ccccc1OC` [Example 195] the same measures were “+++ (“+++” means>100%)” and below 10 µM. Turning to `COc1cccc(F)c1Cc1cnc(NC(=O)C2(c3ccc4c(c3)OCO4)CC2)s1` [Example 196], the “% Activity / % Efficacy (relative efficacy)” value is listed as “+++ (“+++” means>100%)” and the EC50 is below 10 µM.

In the case of `COc1ccccc1CCc1cnc(NC(=O)C2(c3ccc4c(c3)OCO4)CC2)s1` [Example 197], the “% Activity / % Efficacy (relative efficacy)” value is given as “+++ (“+++” means>100%)” and the EC50 was below 10 µM.

As to `COc1ccccc1Cc1cnc(NC(=O)C2(c3ccc(F)c(F)c3)CC2)s1` [Example 198], the “% Activity / % Efficacy (relative efficacy)” value is listed as “+++ (“+++” means>100%)” and the EC50 was below 10 µM. As to `O=C(Nc1ncc(Cc2ccccc2Cl)s1)C1(c2ccc(F)c(F)c2)CC1` [Example 199], the “% Activity / % Efficacy (relative efficacy)” value is listed as “+++ (“+++” means>100%)” and the EC50 was below 10 µM. As for `COc1ccc(CC2(C(=O)Nc3ncc(Cc4ccccc4OC)s3)CC2)cc1` [Example 200], the “% Activity / % Efficacy (relative efficacy)” value is on record as “+++ (“+++” means>100%)” and the half-maximal effective concentration (EC50) is below 10 µM. In the same order, the values of `COc1ccc(CC2(C(=O)Nc3ncc(Cc4ccccc4Cl)s3)CC2)cc1` [Example 201] are “++ (“++” means between 25% to 100%)” and below 10 µM.

With `CCOC(=O)c1nc(NC(=O)C2(c3ccc4c(c3)OCO4)CC2)sc1Cc1ccccc1OC` [Example 202], the “% Activity / % Efficacy (relative efficacy)” value was “+++ (“+++” means>100%)” and the EC50 was below 10 µM. For the compound `O=C(Nc1ncc(C(c2ccccc2Cl)N2CCOCC2)s1)C1(c2ccc3c(c2)OCO3)CC1` (stereo not drawn) [Example 203], the “% Activity / % Efficacy (relative efficacy)” value is listed as “++ (“++” means between 25% to 100%)” and the EC50 is below 10 µM. With `O=C(Nc1ncc([C@@H](c2ccccc2Cl)N2CCCCC2)s1)C1(c2ccc3c(c2)OCO3)CC1` [Example 211], the EC50 was below 10 µM and the Emax was above 100%.

With `C=CCN(C)C(c1cnc(NC(=O)C2(c3ccc4c(c3)OCO4)CC2)s1)c1ccccc1Cl` (stereo not drawn) [Example 218], the “% Activity / % Efficacy (relative efficacy)” value is listed as “+++ (“+++” means>100%)” and the EC50 was below 10 µM. In the case of `O=C(Nc1ncc(C(c2ccccc2Cl)N2CCC[C@@H]2CO)s1)C1(c2ccc3c(c2)OCO3)CC1` (stereo partly drawn) [Example 229], the EC50 is below 10 µM and the Emax is above 100%.

Take `COCCN1CCN(C(c2cnc(NC(=O)C3(c4ccc5c(c4)OCO5)CC3)s2)c2ccccc2Cl)CC1` (stereo not drawn) [Example 238]: the “% Activity / % Efficacy (relative efficacy)” value is recorded as “+++ (“+++” means>100%)” and the EC50 was below 10 µM. Turning to `CCOC(c1cnc(NC(=O)C2(c3ccc4c(c3)OCO4)CC2)s1)c1ccccc1Cl` (stereo not drawn) [Example 240], the “% Activity / % Efficacy (relative efficacy)” value was “+++ (“+++” means>100%)” and the EC50 is below 10 µM. In the same order, the values of `O=C(Nc1ncc(C(c2ccccc2Cl)n2ccnc2)s1)C1(c2ccc3c(c2)OCO3)CC1` (stereo not drawn) [Example 241] are “++ (“++” means between 25% to 100%)” and below 10 µM.

Consider `COc1ccc(C2(C(=O)Nc3ncc(Cc4cnccc4OC)s3)CC2)cc1` [Example 242], for which the “% Activity / % Efficacy (relative efficacy)” value is given as “+++ (“+++” means>100%)” and the EC50 is below 10 µM. In the same order, the values of `COc1ccc(C2(C(=O)Nc3ncc(C4(c5ccccc5OC)CC4)s3)CC2)cc1` [Example 243] are “+++ (“+++” means>100%)” and below 10 µM. Regarding `COc1ccncc1Cc1cnc(NC(=O)C2(c3ccc4c(c3)OCO4)CC2)s1` [Example 244], the “% Activity / % Efficacy (relative efficacy)” value is on record as “+++ (“+++” means>100%)” and the EC50 is below 10 µM. In the case of `COc1ccccc1C1(c2cnc(NC(=O)C3(c4ccc5c(c4)OCO5)CC3)s2)CC1` [Example 245], the “% Activity / % Efficacy (relative efficacy)” value is listed as “+++ (“+++” means>100%)” and the EC50 is below 10 µM. With `CC(C)[C@@H](CO)NC(c1cnc(NC(=O)C2(c3ccc4c(c3)OCO4)CC2)s1)c1ccccc1Cl` (stereo partly drawn) [Example 246], the EC50 was below 10 µM and the Emax is above 100%. As to `C=CCOC(c1cnc(NC(=O)C2(c3ccc4c(c3)OCO4)CC2)s1)c1ccccc1Cl` (stereo not drawn) [Example 251], the EC50 was below 10 µM and the Emax is above 100%.

For the compound `O=C(Nc1ncc(C(OCCN2CCCC2)c2ccccc2Cl)s1)C1(c2ccc3c(c2)OCO3)CC1` (stereo not drawn) [Example 255], the EC50 was below 10 µM. In the case of `O=C1CC[C@@H](CO[C@H](c2cnc(NC(=O)C3(c4ccc5c(c4)OCO5)CC3)s2)c2ccccc2Cl)N1` [Example 256], the EC50 is below 10 µM and the Emax is above 100%. As to `O=C(Nc1ncc(C(OCC2CCOC2)c2ccccc2Cl)s1)C1(c2ccc3c(c2)OCO3)CC1` (stereo not drawn) [Example 258], the EC50 is below 10 µM and the Emax is above 100%. As for `COC(c1cnc(NC(=O)C2(c3ccc4c(c3)OCO4)CC2)s1)c1ccccc1Cl` (stereo not drawn) [Example 260], the “% Activity / % Efficacy (relative efficacy)” value is recorded as “+++ (“+++” means>100%)” and the EC50 is below 10 µM. Take `CC(C)OC(c1cnc(NC(=O)C2(c3ccc4c(c3)OCO4)CC2)s1)c1ccccc1Cl` (stereo not drawn) [Example 261]: the “% Activity / % Efficacy (relative efficacy)” value is listed as “+++ (“+++” means>100%)” and the EC50 is below 10 µM. In the same order, the values of `COc1ccc(C2(C(=O)Nc3ncc(Cc4ccncc4Cl)s3)CC2)cc1` [Example 262] are “+++ (“+++” means>100%)” and below 10 µM. For the compound `COc1ccc(C2(C(=O)Nc3ncc(Cc4ncccc4OC)s3)CC2)cc1` [Example 263], the “% Activity / % Efficacy (relative efficacy)” value is on record as “+++ (“+++” means>100%)” and the EC50 was below 10 µM. `COc1ccc(C2(C(=O)Nc3ncc(Cc4ccc(F)cc4F)s3)CC2)cc1` [Example 264]: the “% Activity / % Efficacy (relative efficacy)” value is on record as “+++ (“+++” means>100%)” and the EC50 is below 10 µM.
